Read-outs that look alike come from different tables or passages of the source.
Conditions: amide bond, BOP, DCM, 25.0 °C

SMILES	ring closure, yield of all isomers (from COC(=O)C(N)Cc1cccc(OC[C@@H](NC(=O)c2cc(C(=O)O)cc(N(C)S(C)(=O)=O)c2)c2ccccc2)c1, 1.76 mM, 72.0 h)	ring closure, yield of all isomers (from COC(=O)[C@H](Cc1cccc(OCCN)c1)NC(=O)c1cc(C(=O)O)cc(N(C)S(C)(=O)=O)c1, 2.0 h, 2 steps)
COC(=O)C1Cc2cccc(c2)OC[C@H](c2ccccc2)NC(=O)c2cc(cc(N(C)S(C)(=O)=O)c2)C(=O)N1 (some centres unmarked)	62%	
COC(=O)[C@@H]1Cc2cccc(c2)OCCNC(=O)c2cc(cc(N(C)S(C)(=O)=O)c2)C(=O)N1		30%

Source: patent US7371853
